Data reported in patent US12371432B2, “Haloallylamine compounds and application thereof” (TransThera Sciences (Nanjing), Inc., priority 2019, dated 2025).
Where a name gives a salt, the structure may show the parent alone.

Target: T1, rhVAP-1 (Homo sapiens, UniProt Q16853)
T1 construct: purchased PeproTech
T1 sequence (Q16853 27-763 limits assumed): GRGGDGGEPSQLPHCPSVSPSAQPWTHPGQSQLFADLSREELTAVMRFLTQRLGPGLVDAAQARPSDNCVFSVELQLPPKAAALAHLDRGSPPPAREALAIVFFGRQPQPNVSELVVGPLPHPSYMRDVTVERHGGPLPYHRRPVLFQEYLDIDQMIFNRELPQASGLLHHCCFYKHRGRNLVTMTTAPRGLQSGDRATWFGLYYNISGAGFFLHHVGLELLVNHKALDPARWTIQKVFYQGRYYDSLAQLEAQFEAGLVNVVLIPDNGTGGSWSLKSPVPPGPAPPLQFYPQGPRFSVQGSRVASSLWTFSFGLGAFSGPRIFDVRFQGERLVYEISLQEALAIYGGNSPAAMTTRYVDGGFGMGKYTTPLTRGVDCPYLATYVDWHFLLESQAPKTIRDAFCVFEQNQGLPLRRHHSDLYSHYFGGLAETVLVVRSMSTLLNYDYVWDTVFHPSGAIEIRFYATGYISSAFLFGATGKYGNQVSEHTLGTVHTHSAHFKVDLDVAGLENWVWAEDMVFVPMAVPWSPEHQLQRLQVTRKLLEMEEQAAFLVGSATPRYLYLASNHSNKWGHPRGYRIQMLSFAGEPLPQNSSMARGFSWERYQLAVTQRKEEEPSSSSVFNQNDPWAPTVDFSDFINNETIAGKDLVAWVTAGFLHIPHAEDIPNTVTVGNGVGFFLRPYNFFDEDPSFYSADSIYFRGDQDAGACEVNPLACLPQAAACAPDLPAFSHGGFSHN
Experiment: Inhibitory activity against rhVAP-1 enzyme (Biological Example 1)
Format: biochemical
Conditions: Table 1; benzylamine substrate, Amplex Red/HRP
Description: 1. Inhibitory Activity of Compounds Against rhVAP-1 Enzyme
(1) Instrument, Consumable and Reagent
Multifunctional microplate reader (MD, FlexStation3), black unclear-bottom 96-well plate (Corning), and rhVAP-1 (PeproTech)
(2) Preparation of Concentration Gradient Compound Solutions
An appropriate amount of the compound to be tested was taken, dissolved in DMSO to 10 mM and then stored. Before the study, an appropriate amount of mother liquor of the 10 mM compound to be tested was diluted with DMSO, so that 1 mM solution was obtained. The solution was then gradiently diluted 3-fold with DMSO, 10 concentration gradients in total. PBS was then used to carry out 100-fold dilution, so that compound solutions of 10× series of concentrations were prepared.
(3) Preparation of Enzyme Solutions
An appropriate amount of protein diluent was added into rhVAP-1 powder, obtaining 1 mg/mL of mother liquor for storage. Before the study, PBS was used to carry out dilution to obtain enzyme solutions of 4× concentrations.
(4) Preparation of Substrate Mixtures of 2× Concentrations
An appropriate amount of benzylamine was weighed and dissolved with PBS to obtain 200 mM of benzylamine solution. The benzylamine solution was added with 2 mM of Amplex Red mother liquor and 500 U/mL of HRP mother liquor and diluted with PBS to obtain substrate mixtures of 2× concentrations.
10 μL compound solutions of different concentrations, 25 μL rhVAP-1 enzyme solutions of 4× concentrations and 15 μL of PBS were first added into a 96-well plate, shaken to be mixed uniformly and then incubated at 37° C. for 30 min. 50 μL substrate mixtures of 2× concentrations were then added into each well, and the microplate reader was immediately used to detect fluorescence intensity of each well with 565 nm exciting light and 590 nm emission light for 5 min each time, 25 min in total. […]
V: fluorescence change rate; Ft: fluorescence reading at time point t; F0: initial fluorescence reading; Time: duration t; Vcmpd: fluorescence change rate of tested compound; Vmax: Max hole fluorescence change rate. […]

| IC50 [nM] | SMILES |
| --- | --- |
| 38 | NC/C(=C\F)Cn1cc2c(n1)CCN(C1CC1)C2=O [Compound A1, (E)-2-(2-(aminomethyl)-3-fluoroallyl)-5-cyclopropyl-2,5,6,7-tetrahydro-4H-pyrazolo[4,3-c]pyridin-4-one] |
| 73 | NC/C(=C\F)Cn1ncc2c1CCN(C1CC1)C2=O [Compound A2 hydrochloride, (E)-1-(2-(aminomethyl)-3-fluoroallyl)-5-cyclopropyl-1,5,6,7-tetrahydro-4H-pyrazolo[4,3-c]pyridin-4-one] |
